A word on the IC50: it is the concentration that gives 50% inhibition. Low values mean higher potency, high ones lower potency.

One experiment concerns the target T1, P-selectin (Homo sapiens, UniProt P16109).
T1 sequence (P16109 whole entry): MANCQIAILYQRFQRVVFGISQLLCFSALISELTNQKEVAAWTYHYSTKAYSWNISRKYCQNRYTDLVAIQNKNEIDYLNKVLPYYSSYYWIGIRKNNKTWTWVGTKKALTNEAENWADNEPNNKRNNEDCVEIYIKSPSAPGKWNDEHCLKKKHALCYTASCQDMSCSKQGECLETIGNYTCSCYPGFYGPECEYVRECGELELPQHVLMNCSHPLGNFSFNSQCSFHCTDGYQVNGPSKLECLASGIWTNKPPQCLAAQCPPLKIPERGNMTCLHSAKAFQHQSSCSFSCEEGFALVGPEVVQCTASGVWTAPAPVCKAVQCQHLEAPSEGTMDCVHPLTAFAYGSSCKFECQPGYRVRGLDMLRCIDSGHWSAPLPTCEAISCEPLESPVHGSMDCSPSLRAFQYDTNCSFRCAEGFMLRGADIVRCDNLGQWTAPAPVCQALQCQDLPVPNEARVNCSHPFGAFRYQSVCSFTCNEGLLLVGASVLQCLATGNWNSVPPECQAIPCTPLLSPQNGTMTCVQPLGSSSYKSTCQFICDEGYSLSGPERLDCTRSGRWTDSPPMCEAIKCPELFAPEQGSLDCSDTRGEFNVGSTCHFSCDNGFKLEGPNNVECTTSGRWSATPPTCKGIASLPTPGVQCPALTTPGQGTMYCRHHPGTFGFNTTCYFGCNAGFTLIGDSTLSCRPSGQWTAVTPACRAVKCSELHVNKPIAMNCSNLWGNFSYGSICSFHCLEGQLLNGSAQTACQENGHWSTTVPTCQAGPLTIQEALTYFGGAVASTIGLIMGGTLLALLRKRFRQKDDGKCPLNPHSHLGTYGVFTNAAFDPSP
In words: Concentration required to inhibit the interaction of Selectin P and HL-60 cells. Type of experiment: cell-based.

The target in the next experiment is T2, E-selectin (Homo sapiens, UniProt P16581).
T2 sequence (P16581 whole entry): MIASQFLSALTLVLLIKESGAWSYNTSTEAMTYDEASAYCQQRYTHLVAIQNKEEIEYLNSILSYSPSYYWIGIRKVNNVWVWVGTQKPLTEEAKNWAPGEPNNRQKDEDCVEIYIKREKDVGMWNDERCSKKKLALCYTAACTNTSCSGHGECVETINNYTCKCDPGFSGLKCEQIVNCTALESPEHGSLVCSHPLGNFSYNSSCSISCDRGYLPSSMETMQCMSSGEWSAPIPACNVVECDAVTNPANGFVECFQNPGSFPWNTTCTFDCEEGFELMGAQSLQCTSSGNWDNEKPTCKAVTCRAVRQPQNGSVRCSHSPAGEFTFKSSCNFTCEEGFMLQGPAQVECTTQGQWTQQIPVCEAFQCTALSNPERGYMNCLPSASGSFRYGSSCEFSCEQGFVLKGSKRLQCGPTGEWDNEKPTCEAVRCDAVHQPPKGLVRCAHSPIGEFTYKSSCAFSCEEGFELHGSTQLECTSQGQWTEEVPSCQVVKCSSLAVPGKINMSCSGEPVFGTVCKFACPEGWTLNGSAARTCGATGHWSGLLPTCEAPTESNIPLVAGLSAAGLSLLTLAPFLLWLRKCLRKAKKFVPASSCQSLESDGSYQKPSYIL
In words: Concentration required to inhibit the interaction of Selectin E and HL-60 cells. Type of experiment: cell-based.

Regarding `CC(=O)N[C@H]1[C@H]([C@H](O)[C@H](O)CO)O[C@@](O[C@H]2[C@@H](O)[C@@H](CO)O[C@@H](O[C@@H]([C@H](O[C@@H]3O[C@@H](C)[C@@H](O)[C@@H](O)[C@@H]3O)[C@H](C=O)NC(C)=O)[C@H](O)CO)[C@@H]2O)(C(=O)O)C[C@@H]1O` [SIALYL LEWIS X], the figures for the IC50 at P-selectin and at E-selectin were 5.5 mM and 5 mM, respectively.

As to `CC(=O)N[C@H]1[C@H]([C@H](O)[C@H](O)CO)O[C@@](O[C@H]2[C@@H](O)[C@@H](CO)O[C@@H](O[C@@H]([C@H](O[C@@H]3O[C@@H](C)[C@@H](O)[C@@H](O)[C@@H]3O)[C@H](C=O)NC(C)=O)[C@H](O)CO)[C@@H]2O)(C(=O)O)C[C@@H]1O` (single isomer, unassigned; enantiomer B) [SIALYL LEWIS X], the IC50 on P-selectin is 4.5 mM; at E-selectin, 5 mM.

Consider `CC(=O)N[C@H]1[C@H]([C@H](O)[C@H](O)CO)O[C@@](O[C@H]2[C@@H](O)[C@@H](CO)O[C@@H](O[C@@H]([C@H](O[C@@H]3O[C@@H](C)[C@@H](O)[C@@H](O)[C@@H]3O)[C@H](C=O)NC(C)=O)[C@H](O)CO)[C@@H]2O)(C(=O)O)C[C@@H]1O` (single isomer, unassigned; enantiomer A) [SIALYL LEWIS X], for which the IC50 came out at 5 mM at P-selectin and 7 mM against E-selectin.

(Values after ChEMBL document CHEMBL1134244, “Design and synthesis of a new sialyl Lewis X mimetic: how selective are the selectin receptors?” (Bioorg Med Chem Lett, 2001).)
